# Where two headings read alike, the source gives them in different places.
# Legend:
# Assay type in all cases: cell-based
# [1] = target: T1, hGABAA α1β3γ2 (Homo sapiens, UniProt P14867+P18507+P28472); experiment: hGABAA IonFlux HT PAM Assay, α1β3γ2; settings: for Mean Maximal Effect (% of Control): normalized to baseline peak current induced by EC20 GABA (1 μM) for 2 seconds
# Text: (§1) Ligand-gated ion channels targeted were hGABAA α1β3γ2 and hGABAA α2β3γ2.
# (§2) Electrophysiological assays conducted to profile nine (9) compounds for activities on the on channel targets listed above for Positive Allosteric Modulator (PAM) activities using the IonFlux HT electrophysiological platform.
# The parameters measured are described in the Data Analysis section.
# (§3) All wells included a final DMSO concentration of 0.33% including all control wells.
# (§4) All recordings were obtained from a holding potential of −60 mV. The compound addition sequence that was used for all additions was the same for all assays. […] The process was repeated with the next ascending concentration of test compound (FIG. 1).
# (§5) All data were first exported to an Excel compatible data file and then analyzed using Graph Pad Prism software.
# [2] = target: T1, hGABAA α1β3γ2; experiment: hGABAA α1β3γ2 IonFlux HT Agonist Assay; design: activation of hGABAA α1β3γ2 ion channel currents / activation: dose or concentration left out as unconfirmed; settings: for activation / activation at 0.3 µM / activation at 1 µM / activation at 3 µM / activation at 10 µM / activation at 30 µM / activation at 100 µM / activation at 300 µM: read-out: Normalized Percentage Activation Mean
# Description: Ligand-gated ion channel targets were hGABAA α2β3γ2 and hGABAA α1β3γ2. Electrophysiological assays conducted to profile two compounds for agonist activities on hGABAA α2β3γ2 and seven compounds for agonist activities on hGABAA α1β3γ2 using the IonFlux HT electrophysiological platform.
# The parameters measured are described in the Data Analysis section. […] Note: The test compounds was applied over two (2) ‘experimental patterns’ in increasing concentrations.
# The supplied compound was prepared in DMSO to concentrations that were 300× the final assay concentrations. Aliquots were taken out and diluted 300× into external buffer to give the final assay concentration. At wells included a final DMSO concentration of 0.33% including all control wets.
# All recordings were obtained from a holding potential of −60 mV. The compound addition sequence that was used for all additions was the same for all assays. […] Each test concentration of compound was applied for 2 seconds followed by 60 seconds wash. The process was repeated with the next ascending concentration of test compound. The test compounds were applied over two (2) ‘experimental patterns’ in increasing concentrations (FIG. 11).
# AM data were first exported to an Excel compatible data file and then analyzed using Graph Pad Prism software.
# [3] = target: hGABAA α2β3γ2 (Homo sapiens, UniProt P18507+P28472+P47869); experiment: hGABAA IonFlux HT PAM Assay, α2β3γ2; settings: for Mean Maximal Effect (% of Control): normalized to baseline peak current induced by EC20 GABA (0.8 μM) for 2 seconds
# Text: as §1, §2
# The parameters measured are described in the Data Analysis section. […] Open circles represent data that has been excluded from the curve fitting. Where no curve fit was possible, n/c (not calculable) is listed.
# as §3, §4, §5
# [4] = Estimated EC50, positive modulation of EC20 GABA current
# hGABAA α2β3γ2, sequence (P47869 29-451): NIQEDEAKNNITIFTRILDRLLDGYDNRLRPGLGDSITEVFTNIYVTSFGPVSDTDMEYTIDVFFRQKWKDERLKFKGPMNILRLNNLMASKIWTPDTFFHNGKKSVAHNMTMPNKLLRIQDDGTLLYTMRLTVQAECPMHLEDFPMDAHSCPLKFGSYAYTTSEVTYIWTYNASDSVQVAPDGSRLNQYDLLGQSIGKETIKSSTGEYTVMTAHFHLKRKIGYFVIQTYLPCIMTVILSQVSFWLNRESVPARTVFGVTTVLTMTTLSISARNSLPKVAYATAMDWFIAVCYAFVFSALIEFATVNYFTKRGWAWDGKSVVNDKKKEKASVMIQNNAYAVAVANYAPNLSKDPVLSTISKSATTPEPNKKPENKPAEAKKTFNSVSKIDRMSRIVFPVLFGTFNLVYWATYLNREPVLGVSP
# hGABAA α2β3γ2, sequence (P28472 26-473): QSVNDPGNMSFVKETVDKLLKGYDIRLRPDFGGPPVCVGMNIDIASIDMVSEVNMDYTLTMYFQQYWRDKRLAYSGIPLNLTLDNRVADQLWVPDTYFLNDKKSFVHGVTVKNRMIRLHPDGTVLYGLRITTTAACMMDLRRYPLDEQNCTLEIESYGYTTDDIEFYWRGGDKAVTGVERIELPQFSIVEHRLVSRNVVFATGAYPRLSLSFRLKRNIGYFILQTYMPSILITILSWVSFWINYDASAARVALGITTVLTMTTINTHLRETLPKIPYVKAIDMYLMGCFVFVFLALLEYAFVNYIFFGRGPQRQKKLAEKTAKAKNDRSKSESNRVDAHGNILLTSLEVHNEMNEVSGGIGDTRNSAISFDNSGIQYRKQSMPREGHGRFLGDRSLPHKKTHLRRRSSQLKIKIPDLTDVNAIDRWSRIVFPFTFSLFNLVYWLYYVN
# hGABAA α2β3γ2, sequence (P18507 40-475): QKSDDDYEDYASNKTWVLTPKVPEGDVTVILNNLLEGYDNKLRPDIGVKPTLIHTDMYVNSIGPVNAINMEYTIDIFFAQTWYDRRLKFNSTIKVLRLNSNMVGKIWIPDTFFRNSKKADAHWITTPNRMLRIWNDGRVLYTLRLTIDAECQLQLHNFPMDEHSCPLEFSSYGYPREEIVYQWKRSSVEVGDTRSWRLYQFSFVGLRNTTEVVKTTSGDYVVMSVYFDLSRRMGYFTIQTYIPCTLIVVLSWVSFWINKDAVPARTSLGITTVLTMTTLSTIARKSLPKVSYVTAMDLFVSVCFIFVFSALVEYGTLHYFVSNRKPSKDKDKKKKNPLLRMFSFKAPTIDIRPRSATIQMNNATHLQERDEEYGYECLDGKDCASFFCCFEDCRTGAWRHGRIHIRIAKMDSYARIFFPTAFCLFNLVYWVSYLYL
# T1 sequence (P14867 28-456): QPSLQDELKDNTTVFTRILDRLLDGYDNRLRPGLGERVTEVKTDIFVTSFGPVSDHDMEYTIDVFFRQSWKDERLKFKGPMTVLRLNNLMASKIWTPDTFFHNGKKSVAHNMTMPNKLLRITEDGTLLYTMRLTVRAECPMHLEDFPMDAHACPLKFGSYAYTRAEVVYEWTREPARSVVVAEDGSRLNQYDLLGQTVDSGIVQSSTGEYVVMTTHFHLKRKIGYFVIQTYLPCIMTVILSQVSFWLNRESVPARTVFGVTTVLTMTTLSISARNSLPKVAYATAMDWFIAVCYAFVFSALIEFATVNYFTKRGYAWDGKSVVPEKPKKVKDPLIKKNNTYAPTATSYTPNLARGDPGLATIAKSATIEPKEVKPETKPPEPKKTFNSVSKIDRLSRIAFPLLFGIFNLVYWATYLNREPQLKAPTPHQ
# T1 sequence (P28472 26-473): as the sequence (P28472 26-473) above
# T1 sequence (P18507 40-475): as the sequence (P18507 40-475) above
Compound,Mean Maximal Effect (% of Control) [1],EC50 ([1]; read-out: Estimated EC50) [µM],activation of hGABAA α1β3γ2 ion channel currents [2],"EC50 ([2]; agonist activation of channel currents, read-out: Estimated EC50) [µM]",activation [2] [%],activation at 0.3 µM [2] [%],activation at 1 µM [2] [%],activation at 3 µM [2] [%],activation at 10 µM [2] [%],activation at 30 µM [2] [%],activation at 100 µM [2] [%],activation at 300 µM [2] [%],Mean Maximal Effect (% of Control) [3],EC50 ([3]; read-out: Estimated EC50) [µM],"EC50 [1, 4] [µM]",EC50 [2] [µM],"EC50 [3, 4] [µM]"
CCCN(CCNC)C(=O)Cc1c(-c2ccc(C)cc2)nc2ccc(C)cn12 [Compound 2],354 % of Control,0.446,did not activate,> 1000,3.48,2.17,1.99,2.79,5.37,5.93,7.1,3.63,248 % of Control,2,,,
CCN(CCN(C)C)C(=O)OC1c2nccnc2C(=O)N1c1ccc(Cl)cn1 (stereo not shown) [Compound 4],170 % of Control,,did not activate,,4.45,5.26,5.13,5.89,5.68,6.45,5.97,5.85,126 % of Control,,2.47,> 1000,5.8
